What was measured:
[1] = IPCS 1999; 21CFR184.1318; cited from earlier work
[2] = test system: different Candida species; details: WO 2017/174731, WO 2019/068862; cited from earlier work
[3] = test system: several strains of bacteria; details: WO 2017/174731, WO 2019/068862; cited from earlier work
Candida albicans = details: preclinical studies; WO 2017/174731; cited from earlier work
[4] = test system: several strains of bacteria; test: Biofilm of bacteria; assay type: cell-based; details: found by the present inventors
[5] = oral doses between 3 g and 50 g; cited from earlier work
[6] = test system: different Candida species; test: Biofilm of Candida species; assay type: cell-based; details: found by the present inventors

Compound | carcinogenicity, teratogenicity, or genotoxicity [1] | presence / formation of biofilm [2] | presence of biofilm [3] | Candida albicans present in the hyphal, i.e. the pathogenic form (Candida albicans) | formation of biofilm [4] | signs of toxicity [5] | formation of biofilm [6]
O=C(O)[C@H](O)[C@@H](O)[C@H](O)[C@H](O)CO [gluconic acid] | no evidence | reduces the presence of biofilm | reduces the presence of biofilm |  |  |  | 
O=C1O[C@H](CO)[C@@H](O)[C@H](O)[C@H]1O [GDL, glucono-δ-lactone] |  | significantly reduced |  | significant reduction | has an effect on the formation of biofilm | no signs of toxicity | has an effect on the formation of biofilm

Reference: patent US12496288B2, “Vaginal tablet formulation” (Gedea Biotech AB, priority 2019, dated 2025)
